Experimental data reported in publication PMC8160210, “Single tryptophan Y160W mutant of homooligomeric E. coli purine nucleoside phosphorylase implies that dimers forming the hexamer are functionally not equivalent” (Scientific Reports, 2021).
Like-named read-outs stand apart in the source and are kept apart here.

Assays:
Y160W PNP mutant = Y160W PNP mutant (Escherichia coli, UniProt P0ABP8, Y161W); test: Inhibition of m^7Guo phosphorolysis; type: biochemical, E. coli; design: made in house; host or cells: E. coli DH5α-T1
Experimental: All activity measurements and kinetic studies were done in 50 mM Hepes/HCl buffer pH 7.0 at 25 °C as previously described for the WT E. coli PNP and its active-site mutants, using direct spectrophotometric assay for adenosine, guanosine and 7-methylguanosine as substrates, and a coupled assay with xanthine oxidase in the case of inosine[13],[28],[29]. Activity measurements were performed for each protein sample, before and after each experiment as a control of the state of the protein.
To determine inhibition model and inhibition constant for formycin A, rate of phosphorolysis with m^7Guo as a variable substrate, at constant, 50 mM, phosphate concentration, was registered in the absence of the inhibitor and in the presence of two different concentrations of formycin. A global fitting to the whole data set was performed, using various models (competitive, uncompetitive, noncompetitive, mixed). As expected for the substrate analogue, competitive model described the data sufficiently well:3 v0c0=Vmax1c0/c0+KM1+ci/Ki where ci is inhibitor concentration. Kinetic data were analysed using the GraphPad Prism program (Intuitive Software for Science, San Diego, CA, USA).

WT E. coli PNP = biological target: T1, WT E. coli PNP (Escherichia coli, UniProt P0ABP8); test: Fluorescence titrations with phosphate; settings: three-binding-site model, 25 °C
T1 construct: made in house
T1 sequence (P0ABP8 2-239 limits assumed): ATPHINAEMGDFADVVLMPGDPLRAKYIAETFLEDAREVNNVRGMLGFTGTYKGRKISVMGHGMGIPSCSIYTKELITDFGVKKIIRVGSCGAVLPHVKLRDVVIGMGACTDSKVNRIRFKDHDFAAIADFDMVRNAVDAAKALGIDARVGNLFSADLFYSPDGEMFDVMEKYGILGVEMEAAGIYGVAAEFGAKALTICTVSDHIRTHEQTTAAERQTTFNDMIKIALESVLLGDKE
Experimental: All experiments were carried out on the Perkin-Elmer LS55 spectrofluorimeter. Fluorescence spectra were registered using in each case (protein or protein–ligand complex) several excitation wavelengths. Differential spectra were calculated by subtracting spectrum of a protein from the spectrum of the appropriate complex. The negative differential fluorescence intensity means that a decrease of fluorescence upon complex formation is observed. Titrations of the enzyme with phosphate were registered using several excitation and observation wavelengths combinations. When selecting specific wavelengths for such a combination, two criteria were used: (1) the overall change in the fluorescence signal and (2) the complexity of the shape of the titration as the analysis of the multi-phasic curves is more explicit than a uni-phasic curve analysis.
Path length for the excitation was 2 mm and for the emission was 5 mm (half of the cuvette dimensions). A continuous stirring was used during titrations. All measurements were performed at 25 °C. […]
Fluorescence intensity of the WT protein is stable over time, but in the case of the Y160W mutant a slight quenching of fluorescence is observed during titration, which typically lasted about 30 min as the time between each point in the titration was 1 min. Furthermore, adding phosphate during titration stabilises the intrinsic fluorescence of the protein. […] Thus corrected binding curves, F^cor([Pi]), are given by the following equation, in which Fn([Pi]) is the fluorescence intensity measured for the phosphate concentration [Pi], and n is the number of a given titration point in the particular titration:4 FncorPi=FnPi+∑m=1naPim
To check its influence on the intrinsic protein fluorescence, titrations with NaCl were performed, giving dependence F(I). […] Titration curves of the WT protein with phosphate were therefore measured up to 100 mM ionic strength of solution, which is enough to observe a plateau. […] Both F^obs([Pi]) and F(I) were corrected for the time dependent fluorescence quenching, according to Eq. (4), prior to the F^bind([Pi]) calculation. […]

Chain of Y160W PNP mutant (P0ABP8 2-239 Y161W): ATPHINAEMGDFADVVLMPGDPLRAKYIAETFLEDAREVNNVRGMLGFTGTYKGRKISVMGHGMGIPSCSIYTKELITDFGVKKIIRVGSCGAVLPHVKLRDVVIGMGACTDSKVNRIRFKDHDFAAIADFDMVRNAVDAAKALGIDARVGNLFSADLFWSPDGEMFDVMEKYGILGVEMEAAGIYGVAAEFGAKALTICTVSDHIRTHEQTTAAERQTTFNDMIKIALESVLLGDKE

`Nc1ncnc2c([C@@H]3O[C@H](CO)[C@@H](O)[C@H]3O)[nH]nc12` [FA, Formycin A] was tested, and the Ki (Y160W PNP mutant) was 42 ± 4 µM.
With `O=P(O)(O)O` [Pi, Orthophosphate] the Kd (WT E. coli PNP; 50 mM Tris/HCl pH 7.6, read-out: Kd1 ± SD) was 4.4 µM, the Kd (WT E. coli PNP; 50 mM Tris/HCl pH 7.6, read-out: Kd2 ± SD) was 84 µM and the Kd (WT E. coli PNP; 50 mM Tris/HCl pH 7.6, read-out: Kd3 ± SD) was 1770 µM.
